Data set [1] deals with T1, Palmitoleoyl-protein carboxylesterase NOTUM (Mus musculus, UniProt Q8R116).
T1 sequence (Q8R116 whole entry): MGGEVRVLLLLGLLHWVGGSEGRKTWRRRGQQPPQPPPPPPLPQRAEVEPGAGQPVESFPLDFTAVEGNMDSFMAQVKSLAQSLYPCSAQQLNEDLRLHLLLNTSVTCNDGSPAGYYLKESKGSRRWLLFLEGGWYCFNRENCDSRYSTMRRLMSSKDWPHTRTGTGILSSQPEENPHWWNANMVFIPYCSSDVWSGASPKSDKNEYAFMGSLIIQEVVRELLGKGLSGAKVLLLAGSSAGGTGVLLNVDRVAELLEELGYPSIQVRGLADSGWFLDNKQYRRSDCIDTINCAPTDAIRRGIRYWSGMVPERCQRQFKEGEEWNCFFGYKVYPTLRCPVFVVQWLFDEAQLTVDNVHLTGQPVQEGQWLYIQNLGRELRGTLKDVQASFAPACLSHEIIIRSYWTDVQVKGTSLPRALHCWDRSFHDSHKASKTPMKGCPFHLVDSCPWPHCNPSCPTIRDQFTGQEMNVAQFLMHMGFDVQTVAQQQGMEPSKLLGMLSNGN
Put plainly: Inhibition of mouse notum pectinacetylesterase expressed in 293F cells after 30 mins by TCF/LEF cell sensor assay. It counts as cell-based.

Data set [2] deals with T2, Palmitoleoyl-protein carboxylesterase NOTUM (Homo sapiens, UniProt Q6P988).
T2 sequence (Q6P988 whole entry): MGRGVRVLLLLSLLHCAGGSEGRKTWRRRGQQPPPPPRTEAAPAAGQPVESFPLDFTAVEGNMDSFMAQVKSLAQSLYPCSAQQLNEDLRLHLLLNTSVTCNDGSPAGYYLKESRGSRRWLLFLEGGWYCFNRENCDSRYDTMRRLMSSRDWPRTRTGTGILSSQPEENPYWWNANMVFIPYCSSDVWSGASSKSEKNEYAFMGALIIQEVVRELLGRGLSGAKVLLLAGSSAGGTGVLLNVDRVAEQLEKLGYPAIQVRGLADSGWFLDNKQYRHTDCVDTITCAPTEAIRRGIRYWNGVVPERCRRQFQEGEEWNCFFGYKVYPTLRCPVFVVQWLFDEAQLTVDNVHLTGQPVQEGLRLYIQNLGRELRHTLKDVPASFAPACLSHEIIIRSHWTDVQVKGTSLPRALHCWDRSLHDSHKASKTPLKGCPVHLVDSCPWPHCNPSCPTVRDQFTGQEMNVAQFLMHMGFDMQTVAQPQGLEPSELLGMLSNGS
Put plainly: Inhibition of human notum pectinacetylesterase expressed in 293F cells after 30 mins by TCF/LEF cell sensor assay. It counts as cell-based.

Data set [3] can be described thus: Inhibition of human/mouse notum pectinacetylesterase using OPTS as substrate by fluorimetric assay.
Another data set concerns Mus musculus. Put plainly: Volume of distribution at steady state in mouse at 10 mg/kg, po. It counts as ADME, organism-based. The conditions noted are these: in vivo.
A short description of data set [4]: Cmax in mouse at 10 mg/kg, po. It counts as ADME, organism-based. Set-up: dose 10 mg/kg, route oral. The following applies: in vivo.
Data set [5] in a line: Oral bioavailability in mouse at 10 mg/kg. It counts as ADME, organism-based. The following applies: in vivo.
A short description of data set [6]: AUC in mouse at 10 mg/kg, po. The following applies: in vivo. It counts as ADME, organism-based.
The nature of data set [7]: Clearance in mouse at 10 mg/kg, po. The following applies: in vivo. It counts as ADME, organism-based.

For `Cc1sc2c(SCC(=O)O)ncnc2c1Cl`, the EC50 – broadly, the concentration that produces a half-maximal response – came to 5510 nM in data set [1] and 1960 nM in data set [2]. Consider `Cc1sc2ncnc(SCC(=O)O)c2c1Br`, for which the EC50 in data set [1] was determined as 375 nM; in data set [2], 208 nM. In the same order, the values of `CCCc1sc2ncnc(SCC(=O)O)c2c1Cl` are 342 nM and 88 nM. Turning to `Cc1sc2ncnc(SCC(=O)c3c[nH]c(CNS(=O)(=O)C4CC4)c3)c2c1C`, in data set [3], the IC50 (commonly the concentration at which inhibition is half-maximal) came out at 2 nM. The EC50 in data set [2] is 168 nM. In the same order, the values of `COC(=O)CSc1ncnc2sc(C)c(C)c12` are 2 nM and 445 nM. In turn, `O=C(O)CSc1ncnc2[nH]ncc12` yielded an IC50 in data set [3] of 15000 nM. In the case of `O=C(O)CSc1ncnc2c(C3CC3)c(C(F)(F)F)sc12`, the values for the EC50 in data set [1] and in data set [2] were 43 nM and 12 nM, respectively. Consider `Cc1sc2c(SCC(=O)O)ncnc2c1C`, for which the EC50 stood at 4470 nM in data set [1] and 881 nM in data set [2]. Regarding `Cc1sc2ncnc(SCC(=O)O)c2c1Cl`, the figures for the EC50 in data set [1] and in data set [2] were 409 nM and 107 nM, respectively. This compound had a Vdss in the data set with Mus musculus of 0.16 L/kg. Moreover, the Cmax (commonly the maximum level reached in the sampled fluid or tissue) in data set [4] worked out at 157 µM. For the same compound, the bioavailability (usually the share of a dose that reaches the circulation, judged against a reference dose that is usually intravenous) in data set [5] is 95%. For the same compound, in data set [6], the AUC – broadly, the area under the concentration-time curve, a measure of exposure – came out at 515 µM·h. In addition, the CL/F (commonly clearance divided by bioavailability, as obtained after extravascular dosing) in data set [7] amounted to 1.22 mL/min/kg. As to `Cc1c(Cl)sc2c(SCC(=O)O)ncnc12`, the EC50 in data set [1] worked out at 1440 nM; in data set [2] it was 435 nM. For the compound `Cc1sc2ncnc(SCC(N)=O)c2c1C`, the IC50 in data set [3] worked out at 2 nM. Further, the EC50 in data set [2] is 857 nM.

For `Cc1c(Br)sc2c(SCC(=O)O)ncnc12`, the values for the EC50 in data set [1] and in data set [2] were 1360 nM and 417 nM, respectively.

Compound `Cc1sc2ncnc(SCC(=O)NO)c2c1C` came in with an IC50 in data set [3] of 2 nM. The compound also returned an EC50 in data set [2] of 556 nM. With `O=C(O)CSc1ncnc2c(C3CC3)c(Cl)sc12`, the EC50 in data set [1] was found to be 55 nM. The same compound registered a Vdss with Mus musculus of 0.13 L/kg. Regarding `O=C(O)CSc1ncnc2sc(C3CC3)c(Cl)c12`, the EC50 in data set [1] is 1010 nM; in data set [2] it was 250 nM. The like results for `Cc1c(Br)sc2ncnc(SCC(=O)O)c12` were, in that order, 485 nM and 144 nM. In data set [3], `CNC(=O)CSc1ncnc2sc(C)c(C)c12` gave an IC50 of 27 nM. In data set [2], this compound displayed an EC50 of 789 nM. In the case of `O=C(O)CSc1ncnc2sccc12`, 2800 nM corresponded to half-maximal inhibition in data set [3] (IC50). In other words, the single-digit micromolar range. Compound `Cc1sc2ncnc(SCC(=O)c3c[nH]c(C(=O)N4CCCC4)c3)c2c1C` yielded an IC50 in data set [3] of 10 nM. For the same compound, in data set [2], the EC50 is 280 nM. Consider `Cc1c(Cl)sc2ncnc(SCC(=O)O)c12`, for which the results for the EC50 in data set [1] and in data set [2] were 2560 nM and 885 nM, respectively.

Take `Cc1sc2ncnc(SCC(=O)NS(C)(=O)=O)c2c1C`: in data set [3], inhibition was half-maximal at 11 nM (IC50). This compound displayed an EC50 in data set [2] of 1460 nM.

`O=C(O)CSc1ncnc2[nH]ccc12` displayed an IC50 in data set [3] of 15000 nM. Still for that read-out and setting: next, `Cc1csc2ncnc(SCC(=O)O)c12`: 92 nM; `O=C(O)CSc1ncnc2ccccc12`: 1200 nM. For the compound `CCc1sc2ncnc(SCC(=O)O)c2c1C`, the EC50 in data set [1] turned out to be 2640 nM; in data set [2], 835 nM. On to `O=C(O)CSc1ncnc2scnc12`, for which the IC50 in data set [3] came to 15000 nM. Turning to `CCc1sc2ncnc(SCC(=O)O)c2c1Cl`, the EC50 in data set [1] amounted to 1440 nM; in data set [2] it was 393 nM. In the same order, the values of `Cc1sc2c(SCC(=O)O)ncnc2c1C1CC1` are 408 nM and 115 nM. For the compound `O=C(O)CSc1ncnc2sc3c(c12)CCCC3`, the IC50 in data set [3] was found to be 620 nM. On the same count and under the same terms, next, `Cc1csc2c(SCC(=O)O)ncnc12`: 193 nM.

Consider `Cc1sc2ncnc(SCC(=O)c3ccc(CNC(=O)C(C)C)o3)c2c1C`, for which the half-maximal inhibitory concentration (IC50) in data set [3] turned out to be 6 nM. The compound also returned an EC50 in data set [2] of 211 nM. Consider `CC(C)c1sc2ncnc(SCC(=O)O)c2c1Cl`, for which the results for the EC50 in data set [1] and in data set [2] were 828 nM and 477 nM, respectively. In data set [3], `Cc1sc2ncnc(SCC(=O)NC#N)c2c1C` displayed an IC50 of 2 nM. The same compound returned an EC50 in data set [2] of 400 nM. As for `CCc1c(C)sc2ncnc(SCC(=O)O)c12`, the EC50 turned out to be 65400 nM in data set [1] and 21900 nM in data set [2].

`Cc1cc2c(SCC(=O)O)ncnc2s1`: the IC50 in data set [3] is 152 nM. As for `Cc1sc2ncnc(SCC(=O)O)c2c1C`, the response in data set [1] was half-maximal at 1020 nM (EC50). The compound also registered an IC50 in data set [3] of 2 nM. For the compound `Cc1sc2ncnc(SCC(=O)c3ccc(CNC(=O)C4CC4)o3)c2c1C`, it took 5 nM to reach half-maximal inhibition in data set [3] (IC50). This compound also had an EC50 in data set [2] of 249 nM.

The values above are taken from ChEMBL document CHEMBL3774323, “Stimulation of cortical bone formation with thienopyrimidine based inhibitors of Notum Pectinacetylesterase” (Bioorg Med Chem Lett, 2016).
